Results reported in patent US20220233624A9, “ANTI-CANCER AND ANTI-PROLIFERATIVE COMPOSITIONS, AND METHODS FOR THEIR USE IN TREATING CANCER” (Natreon, Inc., priority 2020, published 2022).
Where two headings read alike, the source gives them in different places.

Tests used:
[1] = system: Breast Cancer PDCs, ER/PR+ Her2 equivocal (HR+); assay: Anti-proliferation assay on breast cancer HR+ PDCs; type: cell-based, human; details: drug alone @ 10 uM; for inhibition at 10 µM: Homo sapiens
Procedure: (§1) The outermost rows/columns of the plates were filled with PBS (pH 7.4) to avoid an edge-effect and were considered as blanks. Standardized aqueous extracts identified in Table 2 were prepared in main stock solutions by dissolving 1 mg of extract in 1 ml PBS (phosphate-buffered saline, pH 7.4). […] The plate was incubated in a CO2 incubator for 0/N incubation for 24 hours. […] Once extracts were added to incubated cells and mixed gently, the plate was given a brief spin and incubated in the CO2 incubator for 72 hours. The plate was removed from the incubator and 10 ul of detection reagent (CellTiterGlo®; Promega Corporation, Wisconsin, USA) added to each well of the 384 well plate. […] The assay described above is a two-dimensional (2D) assay.

[2] = system: CLL (Chronic lymphocytic leukemia) PDCs; assay: Anti-proliferation assay on CLL PDCs; type: cell-based, human; details: for inhibition at 10 µM: Homo sapiens
Procedure: as §1

[3] = system: Non-small cell lung cancer cells (cell line NCI-H-358); assay: Anti-proliferation assay on non-small cell lung cancer cells; type: cell-based; details: Homo sapiens, NCI-H358
Procedure: Anti-proliferative and anti-cancer activity of extracts of this invention on non-small cell lung cancer cells and colon cancer cells were assessed generally as described in Example I and are discussed below. […] As noted throughout this application, the below data is intended to describe the present invention but not to be limiting.
Non-small cell lung cancer cells (cell line NCI-H-358) and colon cancer cells (cell line HT-29) were plated in a 384-well plate in amounts of about 1.25 k cells/well. […] Wells with untreated cells and with plain media were also included as controls. Plates passed quality control parameters.

[4] = system: Glioma SB 32833 Glioblastoma Grade IV patient derived cells; assay: Anti-proliferation assay on glioma PDCs SB 32833; type: cell-based; details: Homo sapiens, drug @ 10 uM
Procedure: The anti-cancer activity of AyuFlex®, Capros®, and Ayuric® was further tested on two other glioma PDCs taken from 2-3 different subjects (SB 6129, SB 32833 (person)). […] Also, the anti-cancer activity of AyuFlex®, Capros®, and Ayuric® was further tested on existing glioblastoma cell line U87 MG, to allow comparisons with other compositions known in the art. AyuFlex®, Capros®, and/or Ayuric® were incubated with the new PDC lines and the U87 MG cell line for 72 hours, as described in Example I above.
Table 68 relates to FIG. 31, a graph showing the efficacy of AyuFlex®, Capros®, and/or Ayuric® on Glioma SB 32833 Glioblastoma Grade IV patient derived cells, in a combination study.

[5] = system: TN breast cancer PDCs SB 30750; assay: Anti-proliferation assay on TN breast cancer PDCs SB 30750; type: cell-based; details: Homo sapiens
Procedure: In this Example, AyuFlex®, Capros®, and Ayuric® were each applied to different PDCs than previous tests, TN breast cancer PDCs SB 30750, and tested via the anti-proliferation assay described above. […] Incubation times were 72 hours.

[6] = system: SHP-77 (small cell lung cancer) cells; assay: Anti-proliferation assay on small cell lung cancer cells; type: cell-based; details: Homo sapiens, SHP77
Procedure: SHP-77 (small cell lung cancer) cells were incubated for 72 hours with 100 ug/ml, 30 ug/ml, and 10 ug/ml each of AyuFlex®, Capros® Phyto-BGS®, PrimaVie®, Sensoril®, Ayuric®, and Crominex®, and tested according to the anti-proliferative assay described above. Cells were plated at 1.25 k/well in 384 well plates. Standard of care drug docetaxel was also tested at a 10 uM concentration as a control. Anti-proliferative assays were generally performed as discussed above, in triplicate, with detection reagent CellTiterGlo® as discussed for instance in Example I. Tables 77-79 show data for controls and that the data passed quality control parameters.

[7] = system: Prostate cancer (PC-3) cells; assay: Anti-proliferation assay on prostate cancer cells; type: cell-based; details: Homo sapiens
Procedure: (§2) Cells were plated at 1.25 k/well in 384 well plates. […] Anti-proliferative assays were generally performed as discussed in Example I above, in triplicate, with detection reagent CellTiterGlo. Tables 80-82 show data for controls for assays on prostate cancer (PC-3 cells), and that the data passed quality control parameters. Tables 83-85 show data for controls for assays on ovarian cancer (OVCAR-3 cells), and that the data passed quality control parameters.

[8] = system: Ovarian cancer (OVCAR-3) cells; assay: Anti-proliferation assay on ovarian cancer cells; type: cell-based; details: Homo sapiens
Procedure: as §2

[9] = system: Histiocytic lymphoma (U-937) cells; assay: Anti-proliferation assay on histiocytic lymphoma cells; type: cell-based; details: Homo sapiens
Procedure: Cells were plated at 1.25 k/well in 384 well plates. […] Anti-proliferative assays were generally performed as described in Example I above, in triplicate, with detection reagent CellTiterGlo. Tables 98-99 show data for controls for assays on histiocytic lymphoma (U-937) cells, and that the data passed quality control parameters. Tables 101-102 show data for controls for assays on pancreatic cancer (Panc-1) cells, and that the data passed quality control parameters. […] The assay is generally as described in Example I.

[10] = 10 uM, 72 h, read-out: % Inhibition n1
[11] = 10 uM, 72 h, read-out: % Inhibition n2
[12] = 10 uM, 72 h, read-out: % Inhibition n3
[13] = 10 uM, 72 h, read-out: % Inhibition Average (SD)
[14] = drug 10 uM, read-out: inhibition

COc1cccc2c1C(=O)c1c(O)c3c(c(O)c1C2=O)C[C@@](O)(C(=O)CO)C[C@@H]3O[C@H]1C[C@H](N)[C@H](O)[C@H](C)O1 [Doxorubicin, doxorubicin]
inhibition at 10 µM ([1]; read-out: % Inhibition Avg): 78% | inhibition at 10 µM ([1]; read-out: % Inhibition, single replicates): 75% | % Inhibition Avg ([1]; 10 µM): 77% | % Inhibition, single replicates ([1]; 10 µM): 81% | inhibition at 10 µM ([2]; Doxorubicin @ 10 uM, read-out: % Inhibition Avg): 2% | inhibition at 10 µM ([2]; Doxorubicin @ 10 uM, read-out: % Inhibition n1): 16% | inhibition at 10 µM ([2]; Doxorubicin @ 10 uM, read-out: % Inhibition n2): -9% | inhibition at 10 µM ([2]; Doxorubicin @ 10 uM, read-out: % Inhibition n3): 1% | inhibition at 10 µM ([2]; drug alone @ 10 uM, read-out: % Inhibition Avg): 55% | inhibition at 10 µM ([2]; drug alone @ 10 uM, read-out: % Inhibition, single replicates): 50% | % Inhibition, single replicates ([2]; drug alone @ 10 uM, 10 µM): 61% | anti-cancer activity (in words) ([2]; extracts 100, 30, 10 ug/ml, doxorubicin 10 uM): relatively low inhibitory activity | inhibition at 10 µM ([3]; drug 10 uM, read-out: inhibition of proliferation): 78% | inhibition at 10 µM ([3]; plate control @ 10 uM, read-out: % Inhibition Average (SD)): 78% | inhibition at 10 µM ([3]; plate control @ 10 uM, read-out: % Inhibition n1): 79% | inhibition at 10 µM ([3]; plate control @ 10 uM, read-out: % Inhibition n2): 77% | inhibition at 10 µM ([3]; plate control @ 10 uM, read-out: % Inhibition n3): 77% | inhibition at 10 µM ([4]; read-out: % Inhibition Avg): 87% | inhibition at 10 µM ([4]; read-out: % Inhibition n1): 91% | inhibition at 10 µM ([4]; read-out: % Inhibition n2): 86% | inhibition at 10 µM ([4]; read-out: % Inhibition n3): 86% | inhibition at 10 µM ([5]; 10 uM, 72 h, read-out: % Inhibition Avg): 68% | inhibition at 10 µM [5, 10]: 78% | inhibition at 10 µM [5, 11]: 68% | inhibition at 10 µM [5, 12]: 58% | inhibition at 10 µM ([5]; read-out: % Inhibition Average (SD)): 68% | inhibition at 10 µM ([5]; read-out: % Inhibition n1): 78% | inhibition at 10 µM ([5]; read-out: % Inhibition n2): 68% | inhibition at 10 µM ([5]; read-out: % Inhibition n3): 58% | inhibition at 10 µM [6, 13]: 93% | inhibition at 10 µM [6, 10]: 94% | inhibition at 10 µM [6, 11]: 93% | inhibition at 10 µM [6, 12]: 93% | inhibition at 10 µM [6, 14]: 93% | inhibition at 10 µM [7, 13]: 70% | inhibition at 10 µM [7, 10]: 70% | inhibition at 10 µM [7, 11]: 70% | inhibition at 10 µM [7, 12]: 71% | inhibition at 10 µM [7, 14]: 70% | inhibition at 10 µM [8, 13]: 76% | inhibition at 10 µM [8, 10]: 74% | inhibition at 10 µM [8, 11]: 75% | inhibition at 10 µM [8, 12]: 79% | inhibition at 10 µM [8, 14]: 76% | inhibition at 10 µM [9, 13]: 100% | inhibition at 10 µM [9, 10]: 100% | inhibition at 10 µM [9, 11]: 100% | inhibition at 10 µM [9, 12]: 100% | inhibition at 10 µM [9, 14]: 100%
